Measured values reported in PMC11124341, “4-Hydroxybenzoic Acid-Based Hydrazide–Hydrazones as Potent Growth Inhibition Agents of Laccase-Producing Phytopathogenic Fungi That Are Useful in the Protection of Oilseed Crops” (Molecules, 2024).
Values after ≈ are worked out from the molar mass of the structure shown.

Tests used:
[1] = test system: Botrytis cinerea strain FBc05; assay: In vitro antifungal activity, mycelial growth inhibition on PDA medium; assay type: cell-based; conditions: for inhibition of growth at 50 µg/mL / fungal growth inhibition, B. cinerea: screening at basal 50 µg/mL, PDA medium, mean ± SD of three determinations; for inhibition of growth at 50 µg/mL: read-out: fungal growth inhibition, B. cinerea; for IC50: log-logistic model, 0–50 µg/mL range, read-out: IC50 against Botrytis cinerea (Bc)
Procedure: (§1) The cultures of Botrytis cinerea strain FBc05 and Sclerotinia sclerotiorum strain FSc10 were obtained from the collection of the Division of Plant Pathology and Mycology at the Department of Plant Protection of Wroclaw University of Environmental and Life Sciences (Poland). Cerrena unicolor (Bull.ex.Fr.) Murr, strain no. 139, originated from the culture collection of the Department of Biochemistry, University of Lublin (Poland). The stock cultures were maintained on potato dextrose agar at +4 °C and periodically transferred to a fresh medium.
(§2) Prior to the fungicidal activity assay of hydrazide–hydrazones 1–35, we considered ethanol and DMSO as potential dissolution media for tested compounds. […] Furthermore, a very important aspect of biological testing is the careful selection of organic solvents. These are typically used, e.g., methanol, ethanol, acetone, and DMSO, and may be highly toxic for microorganisms in even very low concentrations, such as 1% (v/v). Ethanol and DMSO with a final concentration between 0.1 and 1.0% (v/v) in a PDA medium were used and applied to evaluate the inhibition growth of B. cinerea, S. sclerotiorum, and C. unicolor (see Supplementary Materials). The following procedure was applied to the microorganism testing. The assays of fungi inhibition growth were performed at a basal concentration of 50 µg/mL for all compounds, and detailed experiments were extended for testing between 0 and 50 µg/mL (0, 6.25, 12.5, 25.0, and 50.0 µg/mL) for selected compounds. The tests were carried out on Petri dishes (diameter 60 mm) with PDA medium containing appropriate compound, co-solvent control, and hydrazide–hydrazone dissolved in co-solvent assay. A piece of mycelium with a 5 mm edge taken from the outer edge of the growing fungi on the PDA plate with co-solvent was transferred to a central part of the PDA plate with the examined compound. The plates thus inoculated were incubated at 22 °C in the dark for a time when the control plate containing only the co-solvent was covered entirely with the tested microorganism. For B. cinerea and S. sclerotiorum, the test took 3 days, and for C. unicolor, it took 7 days. Each assay was performed at least in triplicate. […] Model parameters c and e were estimated using the nonlinear least-squares method. Parameters d and b (with two exceptions) were fixed and assumed to be equal. Based on estimated parameters, the values of IC50 were determined. […] The IC50 values were calculated only in cases when the model predicted a decrease in growth rate by more than 50%.
(§3) In vitro antifungal activity
(§4) Prior to the fungicidal activity assay of hydrazide-hydrazones 1–35, we considered ethanol (EtOH) and DMSO as potential dissolution media for tested compounds.
(§5) EtOH and DMSO with a final concentration between 0.1–1.0% (v/v) in a PDA medium were applied to evaluate the inhibition growth of B. cinerea, S. sclerotiorum, and C. unicolor (see Table S3). The following procedure was applied to the microorganism testing with the hydrazide-hydrazones. The assays of fungi inhibition growth were performed at a basal concentration of 50 µg/mL for all compounds, and detailed experiments were extended for testing selected molecules 18, 19, 27, […]
(§6) Table S2. In vitro antifungal activity for DMSO and ethanol co-solvents.

[2] = test system: Sclerotinia sclerotiorum strain FSc10; assay: as above; assay type: cell-based; conditions: for fungal growth inhibition, S. sclerotiorum / inhibition of growth at 50 µg/mL: screening at basal 50 µg/mL, PDA medium, mean ± SD of three determinations; for IC50: log-logistic model, 0–50 µg/mL range, read-out: IC50 against Sclerotinia sclerotiorum (Ss); for inhibition of growth at 50 µg/mL: read-out: fungal growth inhibition, S. sclerotiorum
Procedure: as §1, §2, §3, §4, §5, §6

[3] = test system: Cerrena unicolor strain no. 139; assay: as above; assay type: cell-based; conditions: for fungal growth inhibition, C. unicolor / inhibition of growth at 50 µg/mL: screening at basal 50 µg/mL, PDA medium, mean ± SD of three determinations; for inhibition of growth at 50 µg/mL: read-out: fungal growth inhibition, C. unicolor
Procedure: as §1, §2, §3, §4, §5, §6

[4] = target: laccase from Trametes versicolor; conditions: read-out: Laccase inhibition, Ki; cited from earlier work
[5] = Sclerotinia sclerotiorum, FSC10

Row | Structure (SMILES) | inhibition of growth at 50 µg/mL ([1]; Botrytis cinerea, FBC05) | fungal growth inhibition, S. sclerotiorum [2] | Ki [4] | inhibition of growth at 50 µg/mL ([3]; Cerrena unicolor, NO.139) | fungal growth inhibition, B. cinerea [1] | also measured
1 | COc1cccc(/C=N/NC(=O)c2ccc(O)cc2)c1 [compound 10] | 3.9 ± 2.4% | n.o. | 0.416 mM | – | – | fungal growth inhibition, C. unicolor [3]: n.o.
2 | O=C(N/N=C/c1cccc(O)c1)c1ccc(O)cc1 [compound 7] | 3.7 ± 1.8% | n.o. | 2.4 mM | 12.6 ± 4.1% | – | –
3 | O=C(N/N=C/c1cc(Br)ccc1O)c1ccc(O)cc1 [compound 14] | – | n.o. | ≥ 1 mM | 56.8 ± 8.4% | n.o. | –
4 | CC1(C(=O)Nc2ccc(O)c(Cl)c2Cl)CCCCC1 [Fenhexamid, reference compound] | 99.9 ± 0.4% | – | – | 39.9 ± 0.7% | – | inhibition at 6.25 µg/mL ([1]; Botrytis cinerea, FBC05, fungicidal profile, 6.25 µg/mL, read-out: B. cinerea inhibition): 98.5%; inhibition at 50 µg/mL ([1]; Botrytis cinerea, FBC05, fungicidal profile, 50 µg/mL, read-out: B. cinerea inhibition): 100%; IC50 ([1]; Botrytis cinerea, FBC05): 0.1 µg/mL (≈ 0.331 µM); inhibition at 6.25 µg/mL ([2]; Sclerotinia sclerotiorum, FSC10, fungicidal profile, 6.25 µg/mL, read-out: S. sclerotiorum inhibition): 95.6%; inhibition at 12.5 µg/mL ([2]; Sclerotinia sclerotiorum, FSC10, fungicidal profile, 12.5 µg/mL, read-out: S. sclerotiorum inhibition): 96.3%; IC50 [2, 5]: 4.2 µg/mL (≈ 13.9 µM); inhibition of growth at 50 µg/mL [2, 5]: 100 ± 0.3%; inhibition at 50 µg/mL ([3]; Cerrena unicolor, NO.139, fungicidal profile, 50 µg/mL, read-out: C. unicolor inhibition): 32.1%
5 | COc1cc(O)c(/C=N/NC(=O)c2ccc(O)cc2)c(OC)c1 [compound 29] | 8.1 ± 0.6% | n.o. | ≥ 1 mM | 9.1 ± 1.9% | – | –
6 | CC(=O)NN=Cc1cc(C)cc(C(C)(C)C)c1O [compound 35] | – | n.o. | ≥ 1 mM | 45.7 ± 0.5% | n.o. | –
7 | O=C(N/N=C/c1ccc(O)cc1O)c1ccc(O)cc1 [compound 21] | – | n.o. | 0.939 mM | 30.1 ± 4.3% | n.o. | –
8 | CCO [EtOH, ethanol] | – | – | – | – | – | IC50 of co-solvent, S. sclerotiorum ([2]; co-solvent at 0.1–1.0% (v/v) in PDA medium): n.o.
9 | COc1ccccc1/C=N/NC(=O)c1ccc(O)cc1 [compound 9] | 3.3 ± 1.2% | n.o. | 1.06 mM | 22.3 ± 2.6% | – | –
10 | COc1cccc(O)c1/C=N/NC(=O)c1ccc(O)cc1 [compound 15] | – | n.o. | ≥ 1 mM | 43.1 ± 3% | n.o. | –
11 | O=C(N/N=C/c1ccccc1S(=O)(=O)[O-])c1ccc(O)cc1.[Na+] [compound 5] | – | n.o. | ≥ 2.4 mM | 23.6 ± 4.2% | n.o. | –
12 | CC(C)c1ccc(/C=N/NC(=O)c2ccc(O)cc2)cc1 [compound 4] | 12 ± 2.6% | n.o. | – | 20.9 ± 2.8% | – | –
13 | Cc1ccc(C(C)C)c(O)c1/C=N/NC(=O)c1ccc(O)cc1 [compound 28] | 50.8 ± 2.6% | – | > 1 mM | 38.2 ± 2.3% | – | IC50 ([1]; Botrytis cinerea, FBC05): 52.7 µg/mL (≈ 169 µM); IC50 [2, 5]: 9.8 µg/mL (≈ 31.4 µM); inhibition of growth at 50 µg/mL [2, 5]: 91.4 ± 2.2%
14 | O=C(N/N=C/c1ccc(O)cc1)c1ccc(O)cc1 [compound 8] | 4.2 ± 1.5% | n.o. | 0.638 mM | 14.3 ± 1.7% | – | –
15 | O=C(N/N=C/c1ccc([N+](=O)[O-])o1)c1ccc(O)cc1 [compound 12, Nifuroxazide, reference compound] | 3.3 ± 1.2% | no activity and n.o. | – | 19.5 ± 2.8% | no activity | –
16 | O=C(N/N=C/c1ccccc1O)c1ccc(O)cc1 [compound 6] | 4.7 ± 1.1% | n.o. | 0.674 mM | 14.7 ± 0.3% | – | –
17 | Cc1cc(CO)cc(/C=N/NC(=O)c2ccc(O)cc2)c1O [compound 24] | – | n.o. | ≥ 1 mM | 42 ± 2.1% | n.o. | –
18 | O=C(N/N=C/c1ccccc1)c1ccc(O)cc1 [compound 1] | 2.6 ± 0.2% | n.o. | 1.47 mM | 10.6 ± 1.1% | – | –
19 | Cc1cc(/C=N/NC(=O)c2ccccc2)c(O)c(C(C)(C)C)c1 [compound 33] | 3.9 ± 0.6% | n.o. | 0.082 mM | 36.6 ± 1.2% | – | –
20 | COc1ccc(/C=N/NC(=O)c2ccc(O)cc2)cc1 [compound 11] | 4.4 ± 0.9% | n.o. | ≥ 2.4 mM | 11.7 ± 3.5% | – | –
21 | O=C(N/N=C/CCc1ccccc1)c1ccc(O)cc1 [compound 2] | – | n.o. | 1.92 mM | 18 ± 3.2% | n.o. | –
22 | COc1cccc(OC)c1/C=N/NC(=O)c1ccc(O)cc1 [compound 16] | – | n.o. | ≥ 1 mM | 32.1 ± 3.1% | n.o. | –
23 | COc1ccc(C(=O)N/N=C/c2cc(C)cc(C(C)(C)C)c2O)cc1 [compound 31] | 2.1 ± 0.9% | n.o. | 0.0258 mM | 13.8 ± 3.9% | – | –
24 | COc1ccc(C(=O)N/N=C/c2cccc(-c3ccccc3)c2O)cc1 [compound 20] | 3.3 ± 1.2% | n.o. | ≥ 1 mM | 35.4 ± 2.4% | – | –
25 | Cc1ccc(/C=N/NC(=O)c2ccc(O)cc2)cc1 [compound 3] | 3.3 ± 1.1% | n.o. | 0.251 mM | – | – | fungal growth inhibition, C. unicolor [3]: n.o.
26 | Cc1cc(/C=N/NC(=O)c2cccnc2)c(O)c(C(C)(C)C)c1 [compound 34] | 7.5 ± 0.6% | n.o. | – | 29.6 ± 2.7% | – | –
